Laboratory results published in patent US8518957B2, “Methanocarba adenosine derivatives, pharmaceutical compositions, and method of reducing intraocular pressure” (The United States of America, as represented by the …, priority 2009, dated 2013).
Like-named read-outs stand apart in the source and are kept apart here.

Columns and labels:
[1] = target: T1, human A1 AR (Homo sapiens, UniProt P30542); experiment: Radioligand binding at human A1 AR ([3H]NECA, membranes of CHO cells); details: for Ki: Example 7, agonist radioligand [3H]45, read-out: AR Affinity Ki, nM, A1
T1 construct: expressed in transfected cells
T1 sequence (P30542 1-326): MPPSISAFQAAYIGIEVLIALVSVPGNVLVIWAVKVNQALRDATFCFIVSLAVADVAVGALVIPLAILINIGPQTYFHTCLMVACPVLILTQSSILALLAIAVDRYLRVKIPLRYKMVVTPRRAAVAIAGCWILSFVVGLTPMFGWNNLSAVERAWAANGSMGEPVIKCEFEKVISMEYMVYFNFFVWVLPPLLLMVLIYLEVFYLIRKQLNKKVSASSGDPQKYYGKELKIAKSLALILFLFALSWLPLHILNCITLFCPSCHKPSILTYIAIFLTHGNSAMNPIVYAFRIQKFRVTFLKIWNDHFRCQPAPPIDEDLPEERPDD
Experimental: (§1) [^3H](2-[p-(2-Carboxyethyl)phenyl-ethylamino]-5′-N-ethylcarboxamido-adenosine) (37, [^3H]CGS21680, 40.5 Ci/mmol) and [^125I]N^6-(4-amino-3-iodobenzyl)adenosine-5′-N-methyluronamide (38, [^125I]I-AB-MECA, 2200 Ci/mmol) were purchased from Perkin-Elmer Life and Analytical Science (Boston, Mass.). Test compounds were prepared as 5 mM stock solutions in DMSO and stored frozen at −20° C.
(§2) CHO cells stably expressing the recombinant hA1 and hA3Rs, and HEK-293 cells stably expressing the hA2AAR were cultured in Dulbecco's modified Eagle medium (DMEM) and F12 (1:1) supplemented with 10% fetal bovine serum, 100 units/mL penicillin, 100 μg/mL streptomycin, and […] glutamine. In addition, 800 μg/mL geneticin was added to the A2A media, while 500 μg/mL hygromycin was added to the A1 and A3 media. After harvesting, cells were homogenized and suspended in PBS. Cells were then centrifuged at 240 g for 5 min, and the pellet was resuspended in 50 mM Tris-HCl buffer (pH 7.5) containing 10 mM MgCl2. The suspension was homogenized and was then ultra-centrifuged at 14,330 g for 30 min at 4° C. The resultant pellets were resuspended in Tris buffer, incubated with adenosine deaminase (3 units/mL) for 30 min at 37° C. The suspension was homogenized with an electric homogenizer for 10 sec, pipetted into 1 mL vials and then stored at −80° C. until the binding experiments were conducted. The protein concentration was measured using the BCA Protein Assay Kit from Pierce Biotechnology, Inc. (Rockford, Ill.).
(§3) Into each tube in the binding assay was added 50 μL of increasing concentrations of the test ligand in Tris-HCl buffer (50 mM, pH 7.5) containing 10 mM MgCl2, 50 μl, of the appropriate agonist radioligand, and finally 100 μL of membrane suspension. For the A1AR (22 μg of protein/tube) the radioligand used was [^3H]36 (final concentration of 3.5 nM). For the A2AAR (20 μg/tube) the radioligand used was [^3H]37 (10 nM). For the A3AR (21 μg/tube) the radioligand used was [^125I]38 (0.34 nM). Nonspecific binding was determined using a final concentration of 10 μM unlabeled 36 diluted with the buffer. The mixtures were incubated at 25° C. for 60 min in a shaking water bath. Binding reactions were terminated by filtration through Brandel GF/B filters under a reduced pressure using a M-24 cell harvester (Brandel, Gaithersburg, Md.). Filters were washed three times with 3 mL of 50 mM ice-cold Tris-HCl buffer (pH 7.5). Filters for A1 and A2AAR binding were placed in scintillation vials containing 5 mL of Hydrofluor scintillation buffer and counted using a Perkin Elmer Liquid Scintillation Analyzer (Tri-Carb 2810TR). Filters for A3AR binding were counted using a Packard Cobra II γ-counter. The Ki values were determined using GraphPad Prism for all assays.
(§4) [^3H](2-[p-(2-carboxyethyl)phenyl-ethylamino]-5′-N-ethylcarboxamido-adenosine) ([^3H]CGS21680, 40.5 Ci/mmol) and [^125I]N^6-(4-amino-3-iodobenzyl)adenosine-5′-N-methyluronamide ([^125I]I-AB-MECA, 2200 Ci/mmol) were purchased from PerkinElmer. Test compounds were prepared as 5-mM stock solutions in DMSO and stored frozen at −20° C.
(§5) Chinese hamster ovary (CHO) cells were generated by stably expressing the recombinant hA1 and hA3 and human embryonic kidney (HEK) 293 cells stably expressing the hA2AAR in DMEM and F12 (1:1) supplemented with 10% fetal bovine serum, 100 units/mL penicillin, 100 μg/mL streptomycin, and 2 μmol/mL glutamine. 800 μg/mL Geneticin were added to the A2A media and 500 μg/mL hygromycin to the A1 and A3 media. After harvesting the cells, they were homogenized with an electric homogenizer for 10 sec, pipetted them into 1-mL vials, and then stored them at −80° C. until the binding experiments were conducted. The protein concentration was measured with a BCA Protein Assay Kit from Pierce Biotechnology (Rockford, Ill.). […]

[2] = target: T2, hA2AAR (Homo sapiens, UniProt P29274); experiment: Radioligand binding at human A2A AR ([3H]CGS21680, membranes of HEK-293 cells); details: for Ki: Example 7, agonist radioligand [3H]46, HEK293, read-out: AR Affinity Ki, nM, A2A
T2 construct: expressed in transfected cells
Experimental: as §1, §2, §3, §4, §5

[3] = target: T3, human A3AR (Homo sapiens, UniProt P0DMS8); experiment: Radioligand binding at human A3 AR ([125I]I-AB-MECA, membranes of CHO cells)
T3 construct: expressed in transfected cells
T3 sequence (P0DMS8 1-318): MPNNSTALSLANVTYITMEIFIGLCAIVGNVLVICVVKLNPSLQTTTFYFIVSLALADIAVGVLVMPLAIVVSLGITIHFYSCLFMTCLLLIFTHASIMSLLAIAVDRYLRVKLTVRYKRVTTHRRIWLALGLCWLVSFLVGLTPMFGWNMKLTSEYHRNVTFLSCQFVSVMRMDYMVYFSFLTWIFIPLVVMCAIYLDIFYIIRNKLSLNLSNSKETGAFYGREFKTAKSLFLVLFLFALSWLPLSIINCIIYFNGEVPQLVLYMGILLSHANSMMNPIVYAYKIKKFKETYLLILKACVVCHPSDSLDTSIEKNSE
Experimental: Test compounds were prepared as 5 mM stock solutions in DMSO and stored frozen at −20° C.
as §2
as §3, with “For the A1AR (22 μg of protein/tube) the radioligand used was [^3H]36 (final concentration of 3.5 nM).” left out, “For the A3AR (21 μg/tube) the radioligand used was [^125I]38 (0.34 nM).” left out, “Filters for A1 and A2AAR binding were placed in scintillation vials containing 5 mL of Hydrofluor scintillation buffer and counted using a Perkin Elmer Liquid Scintillation Analyzer (Tri-Carb 2810TR).” left out
Test compounds were prepared as 5-mM stock solutions in DMSO and stored frozen at −20° C.
Chinese hamster ovary (CHO) cells were generated by stably expressing the recombinant hA1 and hA3 and human embryonic kidney (HEK) 293 cells stably expressing the hA2AAR in DMEM and F12 (1:1) supplemented with 10% fetal bovine serum, 100 units/mL penicillin, 100 μg/mL streptomycin, and 2 μmol/mL glutamine. 800 μg/mL Geneticin were added to the A2A media and 500 μg/mL hygromycin to the A1 and A3 media. After harvesting the cells, they were homogenized with an electric homogenizer for 10 sec, pipetted them into 1-mL vials, and then stored them at −80° C. until the binding experiments were conducted. The protein concentration was measured with a BCA Protein Assay Kit from Pierce Biotechnology (Rockford, Ill.).
Each tube in the binding assay contained 50 μL of increasing concentrations of the test ligand in Tris-HCl buffer (50 mM, pH 7.5) containing 10 mM MgCl2, 50 μL of the appropriate agonist radioligand, and 100 μL membrane suspension, added sequentially. […] For the A2AAR (20 μg/tube), the radioligand [^3H]CGS21680 was used (−10 nM). […] The mixtures were incubated at 25° C. for 60 min in a shaking water bath. The binding reactions were terminated by filtration through Brandel GF/B filters under a reduced pressure with a M-24 cell harvester (Brandel, Gaithersburg, Md.). Filters were washed three times with 3 mL 50-mM ice-cold Tris-HCl buffer (pH 7.5). […] The filters were counted for A3AR binding with a Packard Cobra II γ-counter (PerkinElmer). The Ki values were determined with GraphPad Prism for all assays.

[4] = Example 7, agonist radioligand [125I]47, read-out: AR Affinity Ki, nM, A3

T2 sequence (P29274 whole entry): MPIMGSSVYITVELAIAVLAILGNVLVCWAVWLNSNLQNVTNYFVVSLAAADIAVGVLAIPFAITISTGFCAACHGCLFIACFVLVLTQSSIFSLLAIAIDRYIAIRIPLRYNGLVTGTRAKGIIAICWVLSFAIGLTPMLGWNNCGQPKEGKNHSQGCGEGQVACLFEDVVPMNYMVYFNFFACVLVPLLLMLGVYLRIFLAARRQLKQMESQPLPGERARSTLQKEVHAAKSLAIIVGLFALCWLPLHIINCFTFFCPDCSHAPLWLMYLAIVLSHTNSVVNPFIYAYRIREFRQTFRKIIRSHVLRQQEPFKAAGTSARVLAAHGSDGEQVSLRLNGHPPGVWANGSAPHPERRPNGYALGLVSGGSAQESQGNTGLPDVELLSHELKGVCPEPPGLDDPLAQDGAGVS

Ki [1] [nM] | Ki [2] [nM] | Ki [3, 4] [nM] | SMILES | other results
– | – | – | CNC(=O)[C@@]12C[C@@H]1[C@@H](n1cnc3c(NCc4cccc(Cl)c4)nc(C#CCCCc4cn(-c5ccc(F)c([N+](=O)[O-])c5)nn4)nc31)[C@H](O)[C@@H]2O [Compound 10, (1S,2R,3S,4R,5S)-4′-(6-(3-Chlorobenzylamino)-2-(6-(1-(4-fluoro-3-nitrophenyl)-1H-1,2,3-triazol-4-yl)pent-1-ynyl)-9H-purin-9-yl)-2′,3′-dihydroxybicyclo[3.1.0]hexane-1′-carboxylic acid N-methylamide] | % inhibition, A1 ([1]; inhibition of radioligand binding at 10 μM, [3H]36, CHO cells): (10 ± 3%); % inhibition, A2A ([2]; inhibition of radioligand binding at 10 μM, [3H]37, HEK293 cells): (39 ± 4%); Ki ([3]; [125I]38, CHO cells, read-out: Affinity (Ki, nM), A3): 26 ± 8.2 nM
136 ± 22 | 784 ± 97 | – | CNC(=O)[C@@]12C[C@@H]1[C@@H](n1cnc3c(NCc4cccc(I)c4)nc(Cl)nc31)[C@H](O)[C@@H]2O [Compound 127, reference compound] | –
104 ± 24 | 4950 ± 960 | 8.1 ± 3.1 | C#CCCCC#Cc1cccc(CNc2nc(Cl)nc3c2ncn3[C@H]2[C@H](O)[C@H](O)[C@]3(C(=O)NC)C[C@H]23)c1 [Compound 200, (1S,2R,3S,4R,5S)-4-[2-Chloro-6-{3-(1,6-heptadiynylbenzylamino)}-9H-purin—9-yl]-2,3-dihydroxybicyclo[3.1.0]hexane-1-carboxylic acid N-methylamide] | –
1490 ± 230 | – | 113 ± 24 | C#CCCCCC#Cc1cccc(CNc2nc(Cl)nc3c2ncn3[C@H]2[C@H](O)[C@H](O)[C@]3(C(=O)NC)C[C@H]23)c1 [Compound 201, (1S,2R,3S,4R,5S)-4-[2-Chloro-6-{3-(1,7-octadiynyl)benzylamino}-9H-purin-9-yl]-2,3-dihydroxybicyclo[3.1.0]hexane-1-carboxylic acid N-methylamide] | inhibition at 10 µM [2]: 19.7%
– | – | 87.2 ± 49 | C#CCCCCCC#Cc1cccc(CNc2nc(Cl)nc3c2ncn3[C@H]2[C@H](O)[C@H](O)[C@]3(C(=O)NC)C[C@H]23)c1 [Compound 202, (1S,2R,3S,4R,5S)-4-[2-Chloro-6-{3-(1,8-nonadiynyl)}-9H-purin-9-yl]-2,3-dihydroxybicyclo[3.1.0]hexane-1-carboxylic acid N-methylamide] | inhibition at 10 µM [1]: 47.7%; inhibition at 10 µM [2]: 7%
37.4 ± 12 | 1960 ± 50 | 3.2 ± 1.1 | CNC(=O)[C@@]12C[C@@H]1[C@@H](n1cnc3c(NCc4cccc(C#CCCCc5cn(-c6ccc(F)c([N+](=O)[O-])c6)nn5)c4)nc(Cl)nc31)[C@H](O)[C@@H]2O [Compound 203, (1S,2R,3S,4R,5S)-4-(2-Chloro-6-(3-(5-(1-(4-fluoro-3-nitrophenyl)-1H-1,2,3-triazol-4-yl)pent-1-ynyl)benzylamino)-9H-purin-9-yl)-2,3-dihydroxybicyclo[3.1.0]hexane-1-carboxylic acid-N-methylamide] | –
– | – | 14.3 ± 2.3 | CNC(=O)[C@@]12C[C@@H]1[C@@H](n1cnc3c(NCc4cccc(C#CCCCc5cn(-c6ccc(F)c(N)c6)nn5)c4)nc(Cl)nc31)[C@H](O)[C@@H]2O [Compound 207, (1S,2R,3S,4R,5S)-4-(2-Chloro-6-(3-(5-(1-(4-fluoro-3-amino-phenyl)-1H-1,2,3-triazol-4-yl)pent-1-ynyl)benzylamino)-9H-purin-9-yl)-2,3-dihydroxybicyclo[3.1.0]hexane-1-carboxylic acid-N-methylamide] | –
– | – | 47.6 ± 11.3 | CNC(=O)[C@@]12C[C@@H]1[C@@H](n1cnc3c(NCc4cccc(C#CCCCCCc5cn(-c6ccc(F)c(N)c6)nn5)c4)nc(Cl)nc31)[C@H](O)[C@@H]2O [Compound 208, (1S,2R,3S,4R,5S)-4-(2-Chloro-6-(3-(7-(1-(4-fluoro-3-amino-phenyl)-1H-1,2,3-triazol-4-yl)hept-1-ynyl)benzylamino)-9H-purin-9-yl)-2,3-dihydroxybicyclo[3.1.0]hexane-1-carboxylic acid-N-methylamide] | –
– | – | 1.9 | C#CCNc1nc(Cl)nc2c1ncn2[C@H]1[C@H](O)[C@H](O)[C@]2(C(=O)NC)C[C@H]12 [Compound 218, (1S,2R,3S,4R,5S)-4-(2-Chloro-6-(prop-2-ynylamino)-9H-purin-9-yl)-2,3-dihydroxy-N-methylbicyclo[3.1.0]hexane-1-carboxamide] | –
